# Assay results from publication PMC4397719 (Pharmacogenomics and Personalized Medicine, 2015).
# What was measured:
# CD-3e+ T-cells = experiment: Flow cytometry viability; type: cell-based, mouse; conditions: 4 hours; for sensitivity of T-cells (viability) compared to other cell populations: 15 nM to 100 μM
# [1] = system: normal immune cells (splenocyte immune cell subpopulations); conditions: 15 nM to 100 μM, 4 hours
structure (smiles),measurement,setting,value
CC(=O)[C@]1(O)Cc2c(O)c3c(c(O)c2[C@@H](O[C@H]2C[C@H](N)[C@H](O)[C@H](C)O2)C1)C(=O)c1ccccc1C3=O [idarubicin],sensitivity of T-cells (viability) compared to other cell populations,CD-3e+ T-cells,less sensitive than B-cells
COc1cccc2c1C(=O)c1c(O)c3c(c(O)c1C2=O)C[C@@](O)(C(=O)CO)C[C@@H]3O[C@H]1C[C@H](N)[C@H](O)[C@H](C)O1 [doxorubicin],sensitivity of T-cells (viability) compared to other cell populations,CD-3e+ T-cells,least sensitive
same,IC50 (viability),"CD-3e+ T-cells; T-cells, highest concentration of 100 μM, 36 strains",few strains reaching the IC50 at the highest concentration of 100 μM
Cn1c(=O)n(-c2ccc(C(C)(C)C#N)cc2)c2c3cc(-c4cnc5ccccc5c4)ccc3ncc21 [BEZ-235],sensitivity of T-cells (viability) compared to other cell populations,CD-3e+ T-cells,less sensitive and less variable
same,toxicity to normal immune cells (viability),[1],less toxic to normal immune cells than the anthracycline agents
Cn1cnc2c(F)c(Nc3ccc(Br)cc3Cl)c(C(=O)NOCCO)cc21 [selumetinib],sensitivity of T-cells (viability) compared to other cell populations,CD-3e+ T-cells,less sensitive and less variable
same,toxicity to normal immune cells (viability),[1],less toxic to normal immune cells than the anthracycline agents
